Molecular target: T1, telomerase enzyme (Homo sapiens, UniProt O14746)
T1 construct: telomerase enzyme diluted in a buffer
Assay: Flash Plate-based telomerase activity assay
Type: biochemical
Details: telomerase inhibition; two hours of incubation at 37°; Flash Plate readout, Sigma Plot fit
Description: The telomerase activity of compounds of the invention have been evaluated using a Flash Plate-based assay.
Briefly the assay mixture is constituted of: • telomerase enzyme diluted in a buffer, the composition of which has been selected to maintain the enzyme activity stable along the duration of the assay. • dNTPs, deoxynucleotides 5′-triphosphate. • biotinylated oligo as primer. • increasing concentrations of test compounds/positive control.
After two hours of incubation at 37° degrees the telomeric repeats added are evaluated by hybridization in solution with a 3′-labeled short oligonucleotide probe.
The extent of hybridization is then quantitated by transferring the reaction mixture in a streptavidin-coated flash plate, where the binding between biotin and streptavidin occurs.
The telomerase activity is proportional to the radioactivity measured and the inhibitory activity of the compounds is evaluated as IC50 using the Sigma Plot fit program.
With the above-described method IC50 values of the compounds of the present invention were determined.

T1 sequence (O14746 whole entry): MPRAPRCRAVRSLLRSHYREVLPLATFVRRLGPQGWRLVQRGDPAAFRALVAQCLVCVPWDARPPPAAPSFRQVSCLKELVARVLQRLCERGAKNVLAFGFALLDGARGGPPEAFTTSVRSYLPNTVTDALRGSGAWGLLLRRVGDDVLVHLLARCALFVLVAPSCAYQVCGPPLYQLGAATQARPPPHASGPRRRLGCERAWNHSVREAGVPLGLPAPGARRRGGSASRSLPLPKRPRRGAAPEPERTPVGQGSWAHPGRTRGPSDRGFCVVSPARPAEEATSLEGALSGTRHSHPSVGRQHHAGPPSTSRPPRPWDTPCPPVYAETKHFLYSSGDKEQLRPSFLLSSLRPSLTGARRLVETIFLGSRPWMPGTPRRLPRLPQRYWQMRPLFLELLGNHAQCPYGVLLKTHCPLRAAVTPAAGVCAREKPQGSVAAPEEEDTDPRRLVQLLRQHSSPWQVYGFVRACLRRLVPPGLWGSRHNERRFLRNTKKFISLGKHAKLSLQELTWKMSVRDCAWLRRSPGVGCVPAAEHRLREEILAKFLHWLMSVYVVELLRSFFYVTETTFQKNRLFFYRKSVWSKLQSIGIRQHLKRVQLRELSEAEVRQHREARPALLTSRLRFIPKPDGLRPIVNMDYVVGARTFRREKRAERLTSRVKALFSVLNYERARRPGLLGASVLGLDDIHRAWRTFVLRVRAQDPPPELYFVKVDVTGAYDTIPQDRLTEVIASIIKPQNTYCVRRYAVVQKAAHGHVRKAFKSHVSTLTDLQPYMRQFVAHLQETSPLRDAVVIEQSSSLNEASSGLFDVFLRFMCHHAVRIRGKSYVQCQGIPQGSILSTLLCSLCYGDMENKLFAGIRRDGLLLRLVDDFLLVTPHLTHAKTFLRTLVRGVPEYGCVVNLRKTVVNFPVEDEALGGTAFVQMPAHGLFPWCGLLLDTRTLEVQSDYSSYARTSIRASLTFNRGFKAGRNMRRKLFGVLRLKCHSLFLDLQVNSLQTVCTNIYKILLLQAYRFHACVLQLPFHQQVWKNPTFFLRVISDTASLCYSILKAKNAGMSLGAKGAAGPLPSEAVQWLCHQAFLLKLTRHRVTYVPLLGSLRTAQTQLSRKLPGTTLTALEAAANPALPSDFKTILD

In order of falling IC50:
1. Cc1nc(N2CCN(c3ccc(F)cc3)CC2)nc2c1ccc(=O)n2-c1ccc(C(=O)NCc2ccco2)cc1 [Compound 21, 4-(2-[4-(4-fluorophenyl)-1-piperazinyl]-4-methyl-7-oxopyrido[2,3-d]pyrimidin-8(7H)-yl)-N-(2-furylmethyl)benzamide]  21.8 µM
2. Cc1nc(NCC(C)C)nc2c1ccc(=O)n2-c1ccc(C(=O)Nc2ccccc2)cc1 [Compound 44, 4-(2-Isobutylamino-4-methyl-7-oxo-7H-pyrido[2,3-d]pyrimidin-8-yl)-N-phenyl-benzamide]  19.1 µM
3. Cc1nc(N2CCN(c3ncccn3)CC2)nc2c1ccc(=O)n2-c1ccc(C(=O)NCc2ccco2)cc1 [Compound 28, N-(2-furylmethyl)-4-(4-methyl-7-oxo-2-[4-(2-pyrimidinyl)-1-piperazinyl]pyrido[2,3-d]pyrimidin-8(7H)-yl)benzamide]  16.6 µM
4. Cc1nc(N2CCN(c3ncccn3)CC2)nc2c1ccc(=O)n2-c1ccc(C(=O)NCc2cccnc2)cc1 [Compound 30, 4-(4-methyl-7-oxo-2-[4-(2-pyrimidinyl)-1-piperazinyl]pyrido[2,3-d]pyrimidin-8(7H)-yl)-N-(3-pyridinylmethyl)benzamide]  9.4 µM
5. Cc1nc(N2CCN(c3ncccn3)CC2)nc2c1ccc(=O)n2-c1ccc(C(=O)NCc2ccc(F)cc2F)cc1 [Compound 31, N-(2,4-difluorobenzyl)-4-(4-methyl-7-oxo-2-[4-(2-pyrimidinyl)-1-piperazinyl]pyrido[2,3-d]pyrimidin-8(7H)-yl)benzamide]  9.4 µM
6. COc1ccc(NC(=O)c2ccc(-n3c(=O)ccc4c(C)nc(N5CCc6ccccc6C5)nc43)cc2)cc1OC [Compound 34, 4-(2-(3,4-dihydro-2(1H)-isoquinolinyl)-4-methyl-7-oxopyrido[2,3-d]pyrimidin-8(7H)-yl)-N-(3,4-dimethoxyphenyl)benzamide]  8.2 µM
7. Cc1nc(N2CCc3ccccc3C2)nc2c1ccc(=O)n2-c1ccc(C(=O)NCC[N+]2([O-])CCOCC2)cc1 [Compound 45, 4-[2-(3,4-Dihydro-1H-isoquinolin-2-yl)-4-methyl-7-oxo-7H-pyrido[2,3-d]pyrimidin-8-yl]-N-[2-(4-oxy-morpholin-4-yl)-ethyl]-benzamide]  7.3 µM
8. Cc1nc(N2CCN(c3ccc(F)cc3)CC2)nc2c1ccc(=O)n2-c1ccc(C(=O)NCc2ccccc2)cc1 [Compound 20, N-benzyl-4-(2-[4-(4-fluorophenyl)-1-piperazinyl]-4-methyl-7-oxopyrido[2,3-d]pyrimidin-8(7H)-yl)benzamide]  6.1 µM
9. CCCCCCCCNC(=O)c1ccc(-n2c(=O)ccc3c(C)nc(NCC(C)C)nc32)cc1 [Compound 43, 4-(2-Isobutylamino-4-methyl-7-oxo-7H-pyrido[2,3-d]pyrimidin-8-yl)-N-octyl-benzamide]  6.1 µM
10. CCOC(=O)c1ccc(Nc2nc(C)c3ccc(=O)n(-c4ccc(C(=O)OCC)cc4)c3n2)cc1 [Compound 42, Ethyl 4-({8-[4-(ethoxycarbonyl)phenyl]-4-methyl-7-oxo-7,8-dihydropyrido[2,3-d]pyrimidin-2-yl}amino)benzoate]  4.6 µM
11. Cc1nc(N2CCN(c3ncccn3)CC2)nc2c1ccc(=O)n2-c1ccc(C(=O)NCc2ccccc2)cc1 [Compound 27, N-benzyl-4-(4-methyl-7-oxo-2-[4-(2-pyrimidinyl)-1-piperazinyl]pyrido[2,3-d]pyrimidin-8(7H)-yl)benzamide]  3.9 µM
12. Cc1nc(N2CCN(c3ccccn3)CC2)nc2c1ccc(=O)n2-c1ccc(C(=O)NCc2ccco2)cc1 [Compound 24, N-(2-furylmethyl)-4-(4-methyl-7-oxo-2-[4-(2-pyridinyl)-1-piperazinyl]pyrido[2,3-d]pyrimidin-8(7H)-yl)benzamide]  3.8 µM
13. COC(=O)c1ccc(Nc2nc(C)c3ccc(=O)n(-c4ccc(C(=O)OC)cc4)c3n2)cc1 [Compound 41, methyl 4-({8-[4-(methoxycarbonyl)phenyl]-4-methyl-7-oxo-7,8-dihydropyrido[2,3-d]pyrimidin-2-yl}amino)benzoate]  3.1 µM
14. CCOC(=O)c1ccc(NC(=O)c2ccc(-n3c(=O)ccc4c(C)nc(N5CCc6ccccc6C5)nc43)cc2)cc1 [Compound 37, Ethyl 4-{[4-(2-(3,4-dihydro-2(1H)-isoquinolinyl)-4-methyl-7-oxopyrido[2,3-d]pyrimidin-8(7H)-yl)benzoyl]amino}benzoate]  2.9 µM
15. Cc1nc(N2CCc3ccccc3C2)nc2c1ccc(=O)n2-c1ccc(C(=O)NCCC[N+](C)(C)[O-])cc1 [Compound 46, 4-(2-(3,4-dihydro-2(1H)-isoquinolinyl)-4-methyl-7-oxopyrido[2,3-d]pyrimidin-8(7H)-yl)-N-[3-(dimethylamino-N-oxido)propyl]benzamide]  2.6 µM
16. COc1ccc(CNC(=O)c2ccc(-n3c(=O)ccc4c(C)nc(N5CCc6ccccc6C5)nc43)cc2)cc1OC [Compound 36, 4-(2-(3,4-dihydro-2(1H)-isoquinolinyl)-4-methyl-7-oxopyrido[2,3-d]pyrimidin-8(7H)-yl)-N-(3,4-dimethoxybenzyl)benzamide]  2 µM
17. Cc1nc(N2CCc3ccccc3C2)nc2c1ccc(=O)n2-c1ccc(C(=O)N(C)C)cc1 [Compound 35, 4-(2-(3,4-dihydro-2(1H)-isoquinolinyl)-4-methyl-7-oxopyrido[2,3-d]pyrimidin-8(7H)-yl)-N,N-dimethylbenzamide]  1.9 µM
18. COc1ccc(CNC(=O)c2ccc(-n3c(=O)ccc4c(C)nc(N5CCN(c6ccccn6)CC5)nc43)cc2)cc1OC [Compound 25, N-(3,4-dimethoxybenzyl)-4-(4-methyl-7-oxo-2-[4-(2-pyridinyl)-1-piperazinyl]pyrido[2,3-d]pyrimidin-8(7H)-yl)benzamide]  1.7 µM
19. Cc1nc(N2CCc3ccccc3C2)nc2c1ccc(=O)n2-c1ccc(C(=O)Nc2cccc(C#N)c2)cc1 [Compound 38, N-(3-cyanophenyl)-4-(2-(3,4-dihydro-2(1H)-isoquinolinyl)-4-methyl-7-oxopyrido[2,3-d]pyrimidin-8(7H)-yl)benzamide]  1.6 µM
20. Cc1nc(N2CCc3ccccc3C2)nc2c1ccc(=O)n2-c1ccc(C(=O)NC2CCCCC2)cc1 [Compound 39, N-cyclohexyl-4-(2-(3,4-dihydro-2(1H)-isoquinolinyl)-4-methyl-7-oxopyrido[2,3-d]pyrimidin-8(7H)-yl)benzamide]  1.4 µM
21. Cc1nc(N2CCN(c3ncccn3)CC2)nc2c1ccc(=O)n2-c1ccc(C(=O)NCc2cccc3ccccc23)cc1 [Compound 32, 4-(4-methyl-7-oxo-2-[4-(2-pyrimidinyl)-1-piperazinyl]pyrido[2,3-d]pyrimidin-8(7H)-yl)-N-(1-naphthylmethyl)benzamide]  1.25 µM
22. Cc1nc(N2CCc3ccccc3C2)nc2c1ccc(=O)n2-c1ccc(C(=O)NC2CC2)cc1 [Compound 33, N-cyclopropyl-4-(2-(3,4-dihydro-2(1H)-isoquinolinyl)-4-methyl-7-oxopyrido[2,3-d]pyrimidin-8(7H)-yl)benzamide]  1.1 µM
